Measured values published in paper PMC11279468, “Exploring a New Generation of Pyrimidine and Pyridine Derivatives as Anti-Influenza Agents Targeting the Polymerase PA–PB1 Subunits Interaction” (Pharmaceutics, 2024).

Assays:
[1] = molecular target: PA–PB1 interaction (6His-PA(239–716) / GST-PB1(1–25)) (Influenza A virus, UniProt P03433); test: biochemical; format: binding
in vitro = settings: dog
Experimental: The cytotoxicity of compounds was tested in MDCK cells using the 3-(4,5-dimethylthiazol-2-yl)-2,5-diphenyl tetrazolium bromide (MTT) method, as previously reported [32]. Briefly, MDCK cells (seeded at a density of 2 × 10^4 per well) were grown in 96-well plates for 24 h and then treated with serial dilutions of test compounds, or DMSO as a control, in DMEM supplemented with 10% FBS. After incubation at 37 °C for 48 h, 5 mg/mL of MTT (Sigma, Tokyo, Japan) in PBS was added into each well and incubated at 37 °C for a further 4 h. Successively, a solubilization solution was added to lyse the cells and incubated overnight at 37 °C. Finally, optical density was read at the wavelength of 570 nm on a microtiter plate reader (MultiSkan FC, ThermoFisher Scientific).

[2] = system: Influenza virus strain A/PR/8/34 (H1N1); test: microbe, parasite or virus in culture; settings: unidentified influenza virus, MDCK, read-out: EC50 (PRA)

| SMILES | IC50 [1] [µM] | melting point [°C] | CC50 at 48 h (in vitro) [µM] | EC50 [2] [µM] |
| --- | --- | --- | --- | --- |
| CC[C@H](C)[C@H](NC(=O)CSc1cc(-c2ccccc2)cc(-c2ccc(F)cc2)n1)C(=O)OC [Compound 3l, Methyl (2-((6-(4-fluorophenyl)-4-phenylpyridin-2-yl)thio)acetyl)-L-isoleucinate] | > 200 | 76 to 77 |  |  |
| Cc1cccc(NC(=O)CSc2nc(-c3ccc(F)cc3)cc(-c3ccc(F)cc3)n2)c1 [Compound 2b, 2-{[4,6-Bis(4-fluorophenyl)pyrimidin-2-yl]thio}-N-(m-tolyl)acetamide] | 137 ± 35 | 210 to 211 | > 250 | 62.5 ± 4.3 |
| COC(=O)[C@H](Cc1ccc(O)cc1)NC(=O)CSc1cc(-c2ccccc2)cc(-c2ccc(F)cc2)n1 [Compound 3m, Methyl (2-((6-(4-fluorophenyl)-4-phenylpyridin-2-yl)thio)acetyl)-L-tyrosinate] | > 200 | 151 to 152 |  |  |
| COC(=O)[C@H](Cc1c[nH]cn1)NC(=O)CSc1cc(-c2ccccc2)cc(-c2ccc(F)cc2)n1 [Compound 3n, Methyl (2-((6-(4-fluorophenyl)-4-phenylpyridin-2-yl)thio)acetyl)-L-histidinate] | > 200 | 155 to 156 |  |  |
| Cc1cccc(NC(=O)CSc2nc(Sc3ccccc3)cc(-c3ccccc3)n2)c1 [Compound 2i, 2-{[4-Phenyl-6-(phenylthio)pyrimidin-2-yl]thio}-N-(m-tolyl)acetamide] | 28.8 ± 1.5 | 127 to 128 | 73.3 ± 9.1 | 4.6 ± 0.3 |
| COC(=O)[C@H](Cc1ccc(O)cc1)NC(=O)CSc1nc(-c2ccccc2)cc(-c2ccc(F)cc2)n1 [Compound 3c, Methyl (2-((4-(4-fluorophenyl)-6-phenylpyrimidin-2-yl)thio)acetyl)-L-tyrosinate] | 172 ± 7 | 167 to 168 | > 250 | > 100 |
| CC[C@H](C)[C@H](NC(=O)CSc1nc(-c2ccc(F)cc2)cc(-c2ccc(F)cc2)n1)C(=O)OC [Compound 3f, Methyl (2-((4,6-bis(4-fluorophenyl)pyrimidin-2-yl)thio)acetyl)-L-isoleucinate] | > 200 | 150 to 151 | > 250 | > 100 |
| COC(=O)[C@H](Cc1c[nH]cn1)NC(=O)CSc1nc(-c2ccccc2)cc(-c2ccc(F)cc2)n1 [Compound 3d, Methyl (2-((4-(4-fluorophenyl)-6-phenylpyrimidin-2-yl)thio)acetyl)-L-histidinate] | 70 ± 2.8 | 77 to 78 | 98 ± 11.3 | > 100 |
| Cc1cccc(NC(=O)CSc2nc(-c3ccc(F)cc3)cc(-c3ccc(Cl)cc3)n2)c1 [Compound 2e, 2-{[4-(4-Chlorophenyl)-6-(4-fluorophenyl)pyrimidin-2-yl]thio}-N-(m-tolyl)acetamide] | 125 ± 37 | 213 to 217 | 206 ± 12 | 29.5 ± 0.7 |
| COC(=O)[C@H](Cc1ccc(O)cc1)NC(=O)CSc1nc(-c2ccc(F)cc2)cc(-c2ccc(F)cc2)n1 [Compound 3g, Methyl (2-((4,6-bis(4-fluorophenyl)pyrimidin-2-yl)thio)acetyl)-L-tyrosinate] | > 200 |  | > 250 | > 100 |
| COC(=O)[C@H](Cc1ccc(O)cc1)NC(=O)CSc1cc(-c2ccccc2)cc(-c2ccccc2)n1 [Compound 3k, Methyl (2-((4,6-diphenylpyridin-2-yl)thio)acetyl)-L-tyrosinate] | > 200 | 111 to 112 |  |  |
| CC[C@H](C)[C@H](NC(=O)CSc1cc(-c2ccccc2)cc(-c2ccccc2)n1)C(=O)OC [Compound 3j, Methyl (2-((4,6-diphenylpyridin-2-yl)thio)acetyl)-L-isoleucinate] | > 200 | 70 to 71 |  |  |
| COC(=O)[C@@H](NC(=O)CSc1cc(-c2ccccc2)cc(-c2ccccc2)n1)C(C)C [Compound 3i, Methyl (2-((4,6-diphenylpyridin-2-yl)thio)acetyl)-L-valinate] | > 200 | 63 to 64 |  |  |
